Measurements taken from patent publication US20240277658A1, “NLRP3 ACTIVATORS FOR USE IN THE TREATMENT OF INFECTIOUS DISEASES OR CANCER BY ACTIVATING NLRP3 INFLAMMASOME” (ALBERT-LUDWIGS-UNIVERSITÄT FREIBURG, priority 2020, published 2024).
Values joined by “and” are separate entries in the source; they are usually repeats but may differ in a detail not shown here. Equal entries are not always repeated. Where two headings read alike, the source gives them in different places. One block for each compound: values may come before it.

How the values were obtained:
BMDCs = assay: LDH release (lytic cell death, pyroptosis) from LPS-primed BMDCs; type: cell-based, mouse; details: for Average (% positive control): LDH release; for cytotoxicity at 25 µM / cytotoxicity at 50 µM / cytotoxicity at 75 µM / cytotoxicity at 5 µM / cytotoxicity at 100 µM / cytotoxicity at 20 µM / cytotoxicity at 40 µM / cytotoxicity at 80 µM: Mus musculus, BMDC
Method in brief: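 Mouse BMDCs (7-9 days differentiated, GM-CSF) primed with 50 ng ml^−1 E. coli K12 LPS for 3 hours, then exposed 3 hours to compounds (50 μM unless indicated) or activators (nigericin 5 μM; R837, CL097 100 μM). Lytic death measured as LDH release by colorimetric assay, triplicate wells.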

NLRP3 inflammasome [1] = biological target: T1, NLRP3 inflammasome (Mus musculus, UniProt Q8R4B8); assay: IL-1β release from LPS-primed BMDCs (ELISA) as readout of NLRP3 inflammasome activation; type: cell-based
T1 construct: endogenous in cells; host or cells: primary mouse bone marrow-derived dendritic cells (BMDCs), LPS-primed
T1 sequence (Q8R4B8 whole entry): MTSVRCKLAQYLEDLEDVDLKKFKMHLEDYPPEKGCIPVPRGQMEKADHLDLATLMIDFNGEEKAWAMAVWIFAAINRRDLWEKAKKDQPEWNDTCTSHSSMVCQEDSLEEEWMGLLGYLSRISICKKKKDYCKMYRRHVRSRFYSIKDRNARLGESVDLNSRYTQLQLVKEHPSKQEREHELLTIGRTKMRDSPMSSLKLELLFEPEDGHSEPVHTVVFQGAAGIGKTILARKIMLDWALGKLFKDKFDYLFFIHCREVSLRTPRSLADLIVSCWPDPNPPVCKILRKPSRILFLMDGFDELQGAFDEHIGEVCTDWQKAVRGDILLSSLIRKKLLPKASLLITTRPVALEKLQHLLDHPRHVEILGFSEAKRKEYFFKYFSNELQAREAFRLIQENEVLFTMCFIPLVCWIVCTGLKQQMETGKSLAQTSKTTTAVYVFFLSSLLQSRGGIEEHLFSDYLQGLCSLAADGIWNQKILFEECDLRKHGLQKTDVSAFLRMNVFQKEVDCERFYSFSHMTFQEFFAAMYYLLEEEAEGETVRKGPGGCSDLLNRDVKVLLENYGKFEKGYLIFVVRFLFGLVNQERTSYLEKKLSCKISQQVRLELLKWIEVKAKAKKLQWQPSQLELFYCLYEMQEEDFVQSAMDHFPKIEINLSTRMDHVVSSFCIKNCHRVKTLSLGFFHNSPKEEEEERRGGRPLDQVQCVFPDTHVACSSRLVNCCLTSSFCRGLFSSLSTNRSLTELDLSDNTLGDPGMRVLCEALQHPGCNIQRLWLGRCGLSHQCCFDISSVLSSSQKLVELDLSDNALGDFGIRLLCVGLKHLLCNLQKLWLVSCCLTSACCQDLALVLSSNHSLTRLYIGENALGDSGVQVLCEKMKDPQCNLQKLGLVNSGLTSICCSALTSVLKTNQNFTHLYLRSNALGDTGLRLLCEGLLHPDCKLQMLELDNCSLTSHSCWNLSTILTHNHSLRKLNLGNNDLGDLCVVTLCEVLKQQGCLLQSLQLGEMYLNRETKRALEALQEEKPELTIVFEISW
Method in brief: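 NLRP3 inflammasome activation was read out as IL-1β released into the supernatant, measured by ELISA. Murine BMDCs were primed with LPS (50 ng ml^−1, 3 hours), then incubated with compounds for 3 hours, with each condition run in three technical replicates. Nigericin at 5 μM acted as the positive control activator, and IL-1β release was also expressed as a percentage of that control.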

NLRP3 = assay: Inflammasome stimulation (IL-1β, LDH release) in BMDCs from NLRP3 knockout or ASC knockout mice; type: cell-based, mouse; details: IL-1β and LDH release
Method: (§1) For canonical inflammasome activation BMDCs after 7-9 days of differentiation were harvested and counted with a Neubauer Chamber (Hecht Assistant) and the concentration was set to 1 Mio cells ml^−1. 100 μl cell suspension per well were seeded in 96-well plates. The cells were primed with 50 ng ml^−1 E. coli K12 ultra-pure LPS for 3 hours and subsequently treated with canonical inflammasome activators or experimental compounds for 3 hours if not indicated differently (incubation time FIG. 4D, 5, 7, 8, 11, 13-18: 3 h, FIG. 12: 4 h). Concentrations of the stimuli were as follows if not indicated differently: 5 μM nigericin, 100 μM imiquimod (also known as R837), 100 μM CL097, 100 μM R848, […] poly(dA:dT), 300 μg ml^−1 MSU. If an inhibitor was used before stimuli treatment, the inhibitor was added after 2.5 hours of priming and it was incubated for 30 minutes before inflammasome activation. Inhibitors were used as follows: 3 μM MCC950, 45 mM KCl, 30 μM ebselen (2-Phenyl-1,2-benzoselenazol-3-one), 5 μM cytochalasin D (see FIGS. 8, 11, 12 and 17).
(§2) All inflammasome stimulations were performed in three technical replicates for each condition. Lytic cell death was determined via LDH release (see FIGS. 8, 13-16 and 18), cytokines quantified in cell-free supernatants via ELISA (see FIGS. 4D, 7-9, 11-19) and cell lysates and supernatants analyzed via immunoblotting (see FIGS. 5A and 5B) as previously described in detail (Gross, Olaf, 2012 “Measuring the inflammasome”, Methods in molecular biology, Clifton, N.J., 844, pp. 199-222. Schneider, Katharina S.; Thomas, Christina J.; Groß, Olaf, 2013, “Inflammasome activation and inhibition in primary murine bone marrow-derived cells, and assays for IL-1α, IL-1β, and caspase-1”, Methods in molecular biology, Clifton, N.J., 1040, pp. 117-135).

NLRP3 inflammasome [2] = biological target: T1, NLRP3 inflammasome; assay: Inflammasome stimulation of BMDCs after pre-incubation with inhibitors (MCC950, KCl, ebselen, cytochalasin D); type: cell-based
Method: as §1, with “Inhibitors were used as follows: 3 μM MCC950, 45 mM KCl, 30 μM ebselen (2-Phenyl-1,2-benzoselenazol-3-one), 5 μM cytochalasin D (see FIGS. 8, 11, 12 and 17).” left out
as §2

SMILES: O=C(Nc1cc(C(F)F)ns1)Nc1cc(F)ncc1CO [BRM/BRG1 ATP Inhibitor-1, reference compound]
- cytotoxicity at 5 µM (BMDCs; section 1.3, 5 μM, read-out: Average LDH release (% of max.)): 16.6%
- cytotoxicity at 50 µM (BMDCs; section 1.3, 50 μM, read-out: Average LDH release (% of max.)): 35.4%
- cytotoxicity at 100 µM (BMDCs; section 1.3, 100 μM, read-out: Average LDH release (% of max.)): 24.8%
- cytotoxicity at 5 µM (BMDCs; section 1.3, single replicates, 5 μM, read-out: LDH release (% of max.)): 14.1%
- cytotoxicity at 50 µM (BMDCs; section 1.3, single replicates, 50 μM, read-out: LDH release (% of max.)): 38.5%
- cytotoxicity at 100 µM (BMDCs; section 1.3, single replicates, 100 μM, read-out: LDH release (% of max.)): 27%
- Average (% positive control) (BMDCs; section 1.3, 5 μM, positive control nigericin 5 μM): 30.921 % positive control
- Average (% positive control) (BMDCs; section 1.3, 50 μM, positive control nigericin 5 μM): 65.959 % positive control
- Average (% positive control) (BMDCs; section 1.3, 100 μM, positive control nigericin 5 μM): 46.154 % positive control
- Average IL-1β (NLRP3 inflammasome [1]; section 1.3, 5 μM): 3.664 ng/mL
- Average IL-1β (NLRP3 inflammasome [1]; section 1.3, 50 μM): 5.980 ng/mL
- Average IL-1β (NLRP3 inflammasome [1]; section 1.3, 100 μM): 5.023 ng/mL
- Average (% positive control) (NLRP3 inflammasome [1]; section 1.3, IL-1β release, 5 μM, positive control nigericin 5 μM): 116.295 % positive control
- Average (% positive control) (NLRP3 inflammasome [1]; section 1.3, IL-1β release, 50 μM, positive control nigericin 5 μM): 189.7925 % positive control
- Average (% positive control) (NLRP3 inflammasome [1]; section 1.3, IL-1β release, 100 μM, positive control nigericin 5 μM): 159.415 % positive control
- IL-1β (NLRP3 inflammasome [1]; section 1.3, single replicates, 5 μM): 3.556 ng/mL and 3.899 ng/mL and 3.537 ng/mL
- IL-1β (NLRP3 inflammasome [1]; section 1.3, single replicates, 50 μM): 4.561 ng/mL and 6.642 ng/mL and 6.737 ng/mL
- IL-1β (NLRP3 inflammasome [1]; section 1.3, single replicates, 100 μM): 7.150 ng/mL and 3.831 ng/mL and 4.087 ng/mL
- characteristics of inflammasome activation in cells isolated from NLRP3 knockout mice (NLRP3): do not occur

SMILES: COCCNC(=O)c1cc(-c2ccn(C3CCCC3)n2)n2ccccc12 [EN54]
- characteristics of inflammasome activation in cells isolated from NLRP3 knockout mice (NLRP3): do not occur

Now from value to compound, other results behind:

- Average IL-1β (NLRP3 inflammasome [1]; 25 μM, AH series table): 2.151 ng/mL
- Average IL-1β (NLRP3 inflammasome [1]; 50 μM, AH series table): 10.000 ng/mL
- IL-1β (NLRP3 inflammasome [1]; 50 μM, individual replicate values, AH series table): 10.000 ng/mL
- Average IL-1β (NLRP3 inflammasome [1]; 75 μM, AH series table): 9.996 ng/mL
- IL-1β (NLRP3 inflammasome [1]; 75 μM, individual replicate values, AH series table): 9.988 ng/ml and 10.000 ng/ml (2×)
- Average (% positive control) (NLRP3 inflammasome [1]; IL-1β, 25 μM, positive control EN22 10 μM): 21.507 % positive control
- Average (% positive control) (NLRP3 inflammasome [1]; IL-1β, 50 μM, positive control EN22 10 μM): 100.000 % positive control
- Average (% positive control) (NLRP3 inflammasome [1]; IL-1β, 75 μM, positive control EN22 10 μM): 99.960 % positive control
SMILES: S=C(Nc1ccccc1)Nc1ccc2ncccc2c1 [AH4, 1-phenyl-3-(quinolin-6-yl) thiourea]
- Average (% positive control) (BMDCs; 25 μM, positive control EN22 10 μM): 24.359 % positive control
- Average (% positive control) (BMDCs; 50 μM, positive control EN22 10 μM): 73.142 % positive control
- Average (% positive control) (BMDCs; 75 μM, positive control EN22 10 μM): 89.204 % positive control
- cytotoxicity at 25 µM (BMDCs; 25 μM, AH series table, read-out: Average LDH release (% of max.)): 18.7%
- cytotoxicity at 25 µM (BMDCs; 25 μM, individual replicate values, AH series table, read-out: LDH release (% of max.)): 20%
- cytotoxicity at 50 µM (BMDCs; 50 μM, AH series table, read-out: Average LDH release (% of max.)): 56.2%
- cytotoxicity at 50 µM (BMDCs; 50 μM, individual replicate values, AH series table, read-out: LDH release (% of max.)): 57.6%
- cytotoxicity at 75 µM (BMDCs; 75 μM, individual replicate values, read-out: LDH release (% of max.)): 67.9%
- cytotoxicity at 75 µM (BMDCs; 75 μM, read-out: Average LDH release (% of max.)): 68.5%
- IL-1β (NLRP3 inflammasome [1]; 25 μM, individual replicate values, AH series table): 2.340 ng/mL and 2.250 ng/mL and 1.863 ng/mL
- characteristics of inflammasome activation in cells isolated from NLRP3 knockout mice (NLRP3): do not occur

- EC50 for induction of IL-1β, times lower than for imiquimod and CL097 (NLRP3 inflammasome [1]; BMDCs, FIG. 4D): 10 times
- Average (% positive control) (NLRP3 inflammasome [1]; IL-1β release, compound 50 μM, positive control nigericin 5 μM): 108.566 % positive control
- Average IL-1β (NLRP3 inflammasome [1]; compound 50 μM, LPS-primed BMDCs): 7.782 ng/mL
- dependence of NLRP3 inflammasome activation on potassium efflux from the cell (NLRP3 inflammasome [2]; 50 mM extracellular KCl, FIGS. 11 and 17): independently of potassium efflux
- effect of the endocytosis inhibitor cytochalasin D on NLRP3 activation (NLRP3 inflammasome [2]; LPS-primed wild-type BMDCs, FIG. 12): has no effect
- effect of the NLRP3-specific inhibitor MCC950 on inflammasome activation by the compound (NLRP3 inflammasome [2]; wild-type BMDCs, compound 50 μM, FIG. 8): completely suppresses
SMILES: COc1ccccc1NC(=O)NCc1nc(-c2ccc(C(F)(F)F)cc2)no1 [EN21, 1-(2-methoxyphenyl)-3-((3-(4-(trifluoromethyl)phenyl)-1,2,4-oxadiazol-5-yl)methyl)urea]
- Average (% positive control) (BMDCs; compound 50 μM, positive control nigericin 5 μM): 68.766 % positive control
- cytotoxicity at 50 µM (BMDCs; compound 50 μM, LPS-primed BMDCs, read-out: Average LDH release (% of max.)): 50.3%
- IL-1β (NLRP3 inflammasome [1]; single replicates, compound 50 μM, LPS-primed BMDCs): 8.582 ng/mL and 7.428 ng/mL and 8.023 ng/mL and 6.613 ng/mL and 8.352 ng/mL and 7.696 ng/mL
- characteristics of inflammasome activation in cells isolated from NLRP3 knockout mice (NLRP3): do not occur

- Average IL-1β (NLRP3 inflammasome [1]; 20 μM): 2.404 ng/mL
- Average IL-1β (NLRP3 inflammasome [1]; 40 μM): 2.655 ng/mL
- Average IL-1β (NLRP3 inflammasome [1]; 80 μM): 3.966 ng/mL
- Average (% positive control) (NLRP3 inflammasome [1]; IL-1β, 20 μM, positive control EN22): 122.814 % positive control
- Average (% positive control) (NLRP3 inflammasome [1]; IL-1β, 40 μM, positive control EN22): 135.661 % positive control
- Average (% positive control) (NLRP3 inflammasome [1]; IL-1β, 80 μM, positive control EN22): 202.590 % positive control
SMILES: COc1ccc(NC(=O)Nc2ccc3ncccc3c2)cc1 [JB010, 1-(4-methoxyphenyl)-3-(quinolin-6-yl)urea]
- Average (% positive control) (BMDCs; 20 μM, positive control EN22 20 μM): 44.689 % positive control
- Average (% positive control) (BMDCs; 40 μM, positive control EN22 20 μM): 62.649 % positive control
- Average (% positive control) (BMDCs; 80 μM, positive control EN22 20 μM): 77.427 % positive control
- cytotoxicity at 20 µM (BMDCs; 20 μM, individual replicate values, read-out: LDH release (% of max.)): 24.4%
- cytotoxicity at 20 µM (BMDCs; 20 μM, read-out: Average LDH release (% of max.)): 23.8%
- cytotoxicity at 40 µM (BMDCs; 40 μM, individual replicate values, read-out: LDH release (% of max.)): 31.4%
- cytotoxicity at 40 µM (BMDCs; 40 μM, read-out: Average LDH release (% of max.)): 33.4%
- cytotoxicity at 80 µM (BMDCs; 80 μM, individual replicate values, read-out: LDH release (% of max.)): 38.6%
- cytotoxicity at 80 µM (BMDCs; 80 μM, read-out: Average LDH release (% of max.)): 41.2%
- IL-1β (NLRP3 inflammasome [1]; 20 μM, individual replicate values): 2.200 ng/mL and 3.078 ng/mL and 1.934 ng/mL
- IL-1β (NLRP3 inflammasome [1]; 40 μM, individual replicate values): 2.727 ng/mL and 2.742 ng/mL and 2.498 ng/mL
- IL-1β (NLRP3 inflammasome [1]; 80 μM, individual replicate values): 2.757 ng/mL and 3.613 ng/mL and 5.527 ng/mL
- characteristics of inflammasome activation in cells isolated from NLRP3 knockout mice (NLRP3): do not occur
